Results as given in patent publication US20260209214A1, “LSD1 MODULATORS” (RECURSION PHARMACEUTICALS, INC., priority 2022, published 2026).
Structures can show the parent of a compound that is named as a salt.

Molecular target: Recombinant human LSD1 (Homo sapiens, UniProt O60341)
Assay: LSD1 inhibition assay (HTRF LSD1 Histone H3K4 mono-demethylation assay, me1->me0)
Format: biochemical
Conditions: 20 nM recombinant human LSD1, 95 nM H3K4(me1) biotinylated peptide, 15 min preincubation, 60 min at 25° C., read-out: LSD1 inhibition IC50 (nM range)
Description: LSD1 biochemical activity was measured using the HTRF® LSD1 Histone H3K4 mono-demethylation assay (me1->me0). Briefly, the enzymatic buffer was prepared by addition of 50 mM Tris-HCl (Sigma cat #T2663-IL), 50 mM NaCl (ThermoFisher cat #AM9759) and 0.01% Tween 20 (ThermoFisher cat #J20605.AP) in distilled water (final pH 8.5). This buffer was supplemented with 10 μM FAD (Fisher Scientific cat #11411838) and 1 mM DTT (Sigma cat #D0632). For the assay, H3K4(me1) biotinylated peptide substrate (Anaspec, cat #64355) was added to provide a final assay concentration of 95 nM. The streptavidin-XL665 (Cisbio cat #610SAXLA) and H3K4 me0-Eu(K) antibody-cryptate (Cisbio, cat #61 KAOKAD) detection reagents were mixed according to the manufacturer's instructions. Test compounds were diluted in DMSO in a series of 10 semi-log step doses; 10 nL of each compound dose were dispensed in 384 well plates. Recombinant human LSD1 was diluted into enzymatic buffer to provide a final assay concentration of 20 nM and added to the tested compounds for 15 minutes. The reaction was started by addition of the substrate and incubated at 25° C. for 60 minutes. The detection reagents were added, and the plate was incubated in the dark for 90 minutes. Fluorescence was measured on an Envision 2103 plate reader with optical setup for […] in the HTRF mode. The ratio of acceptor and donor emission signals was calculated for each well. Percent inhibition values were calculated from the HTRF ratios at different doses and fitted to a 4-parameter logistic curve to determine IC50 values. […]

Q: How did the IC50 turn out when N#Cc1ccc(-c2cccc(CC3CNCCCO3)c2N2CCC2)cc1F (stereo not drawn) [Example 46, 2′-(azetidin-1-yl)-3-fluoro-3′-[(1,4-oxazepan-2-yl)methyl]-[1,1′-biphenyl]-4-carbonitrile] was run?
A: 25 to 100 nM

Q: For N#Cc1ccc(-c2cc(F)cc(C[C@H]3CNCCO3)c2-c2ccns2)cc1F (single isomer, unassigned) [Example 6], which IC50 is on record?
A: 10 to 25 nM

Q: Which IC50 does the source give for N#Cc1ccc(-c2cc(CC3CNCCO3)ccc2N2CC3(CCOCC3)C2)cc1F (stereo not drawn) [Example 62, 3-fluoro-5′-[(morpholin-2-yl)methyl]-2′-{7-oxa-2-azaspiro[3.5]nonan-2-yl}-[1,1′-biphenyl]-4-carbonitrile] here?
A: 100 to 1000 nM

Q: For N#Cc1ccc(-c2cccc(CN3CCC4(CCCN4)C3)c2C2CC2)cc1F (stereo not drawn) [Example 266, Fc1cc(ccc1C#N)c2cccc(CN3CCC4(CCCN4)C3)c2C5CC5], which IC50 is on record?
A: 100 to 1000 nM

Q: With CN1CC2CN(Cc3cccc(-c4ccc(C#N)c(F)c4)c3C3CC3)CC21 (stereo not drawn) [Example 277, 2'-cyclopropyl-3-fluoro-3'-({6-methyl-3,6-diazabicyclo[3.2.0]heptan-3-yl}methyl)-[1,1'-biphenyl]-4-carbonitrile] as the compound, how does the IC50 read?
A: 25 to 100 nM

Q: N#Cc1ccc(-c2cccc(CN3C[C@H]4C[C@@H](N)C[C@@H]3C4)c2C2CC2)cc1F (stereo in doubt) [Example 318, 3'-{[(1S,3R,5S)-3-amino-6-azabicyclo[3.2.1]octan-6-yl]methyl}-2'-cyclopropyl-3-fluoro-[1,1'-biphenyl]-4-carbonitrile] was tested. Which IC50 did it give?
A: 25 to 100 nM

Q: For COc1ccc(-c2ccc(CN3[C@@H]4CC[C@H]3[C@@H](N)C4)cc2-c2ccc(C#N)c(F)c2)cc1F (racemic) [Example 222, 4-(4-{[(1S,2S,4R)-2-amino-7-azabicyclo[2.2.1]heptan-7-yl]methyl}-3'-fluoro-4'-methoxy-[1,1'-biphenyl]-2-yl)-2-fluorobenzonitrile], which IC50 is on record?
A: 10 to 25 nM

Q: Which IC50 does the source give for N#Cc1ccc(-c2cccc(CC3CNCCCO3)c2C2CC2)cc1F (stereo not drawn) [Example 82, 2′-cyclopropyl-3-fluoro-3′-[(1,4-oxazepan-2-yl)methyl]-[1,1′-biphenyl]-4-carbonitrile] here?
A: 25 to 100 nM

Q: Which IC50 does the source give for COc1ccc(CC2CNCCO2)cc1-c1ccc(C#N)c(F)c1 (stereo not drawn) [Example 142, 3-fluoro-2′-methoxy-5′-[(morpholin-2-yl)methyl]-[1,1′-biphenyl]-4-carbonitrile] here?
A: > 1000 nM

Q: N#Cc1ccc(-c2cccc(CN3[C@@H]4CC[C@H]3[C@@H](N)C4)c2-c2ccns2)cc1F [Example 192, N[C@H]1C[C@H]2CC[C@@H]1N2Cc3cccc(c4ccc(C#N)c(F)c4)c3c5ccns5] was tested. Which IC50 did it give?
A: < 10 nM

Q: With N#Cc1ccc(-c2cccc(CC3CNCCO3)c2C2=CCOC2)cc1F (stereo not drawn) [Example 10, 2′-(2,5-dihydrofuran-3-yl)-3-fluoro-3′-[(morpholin-2-yl)methyl]-[1,1′-biphenyl]-4-carbonitrile] as the compound, how does the IC50 read?
A: 10 to 25 nM

Q: CC1(C)CNCC(Cc2cccc(-c3ccc(C#N)cc3)c2-c2cncs2)O1 (stereo not drawn) [Example 103, 3′-[(6,6-dimethylmorpholin-2-yl)methyl]-2′-(1,3-thiazol-5-yl)-[1,1′-biphenyl]-4-carbonitrile] was tested. Which IC50 did it give?
A: 10 to 25 nM

Q: With N#Cc1ccc(-c2cccc(CN3CC4CNC(C4)C3)c2Cl)cc1F (stereo not drawn) [Example 284, 2'-chloro-3'-({3,6-diazabicyclo[3.2.1]octan-3-yl}methyl)-3-fluoro-[1,1'-biphenyl]-4-carbonitrile] as the compound, how does the IC50 read?
A: 100 to 1000 nM

Q: How did the IC50 turn out when N#Cc1ccc(-c2cccc(CC3CNCCCO3)c2-c2ccns2)cc1F (stereo not drawn) [Example 20, 3-fluoro-3′-[(1,4-oxazepan-2-yl)methyl]-2′-(1,2-thiazol-5-yl)-[1,1′-biphenyl]-4-carbonitrile] was run?
A: < 10 nM

Q: With CC(C)Oc1c(CN2[C@@H]3CC[C@H]2[C@@H](N)C3)cccc1-c1ccc(C#N)c(F)c1 (racemic) [Example 213] as the compound, how does the IC50 read?
A: 25 to 100 nM

Q: For Cc1ncsc1-c1c(CC2CNCCO2)cccc1-c1ccc(C#N)cc1 (stereo not drawn) [Example 38, 2′-(4-methyl-1,3-thiazol-5-yl)-3′-[(morpholin-2-yl)methyl]-[1,1′-biphenyl]-4-carbonitrile], which IC50 is on record?
A: 10 to 25 nM

Q: How did the IC50 turn out when N#Cc1ccc(-c2cc(CN3[C@@H]4CC[C@H]3[C@@H](N)C4)ccc2C2CC2)cc1F (racemic) [Example 309, 5'-{[(1S,2S,4R)-2-amino-7-azabicyclo[2.2.1]heptan-7-yl]methyl}-2'-cyclopropyl-3-fluoro-[1,1'-biphenyl]-4-carbonitrile] was run?
A: 10 to 25 nM

Q: For CC1CCN(c2ccc(CN3[C@@H]4CC[C@H]3[C@@H](N)C4)cc2-c2ccc(C#N)c(F)c2)CC1 (racemic) [Example 259, 5'-{[(1S,2S,4R)-2-amino-7-azabicyclo[2.2.1]heptan-7-yl]methyl}-3-fluoro-2'-(4-methylpiperidin-1-yl)-[1,1'-biphenyl]-4-carbonitrile], which IC50 is on record?
A: 10 to 25 nM

Q: For N#Cc1ccc(-c2cccc(CN3C[C@]4(N)CC[C@H]3C4)c2C2CC2)cc1F [Example 193, 3'-{[(1S,4S)-4-amino-2-azabicyclo[2.2.1]heptan-2-yl]methyl}-2'-cyclopropyl-3-fluoro-[1,1'-biphenyl]-4-carbonitrile], which IC50 is on record?
A: 10 to 25 nM

Q: Which IC50 does the source give for N#Cc1ccc(-c2cccc(CC3CNCCO3)c2-c2cncs2)cc1F (stereo not drawn) [Example 48, 3-fluoro-3′-[(morpholin-2-yl)methyl]-2′-(1,3-thiazol-5-yl)-[1,1′-biphenyl]-4-carbonitrile] here?
A: 10 to 25 nM

Q: C[C@]1(N)CCN(Cc2c(F)ccc(-c3ccc(C#N)c(F)c3)c2Cl)C1 [Example 342, 3'-{[(3S)-3-amino-3-methylpyrrolidin-1-yl]methyl}-2'-chloro-3,4'-difluoro-[1,1'-biphenyl]-4-carbonitrile] was tested. Which IC50 did it give?
A: 100 to 1000 nM

Q: N#Cc1ccc(-c2cccc(CN3CCC[C@H]4NCC[C@H]43)c2-c2cncs2)cc1F (racemic) [Example 279, 3'-{[(3aR,7aR)-otcahydro-1H-pyrrolo[3,2-b]pyridin-4-yl]methyl}-3-fluoro-2'-(1,3-thiazol-5-yl)-[1,1'-biphenyl]-4-carbonitrile] was tested. Which IC50 did it give?
A: 10 to 25 nM

Q: With N#Cc1ccc(-c2cccc(CN3[C@@H]4CC[C@H]3[C@@H](N)C4)c2N2CCC2)cc1F (racemic) [Example 203, 3'-{[(1S,2S,4R)-2-amino-7-azabicyclo[2.2.1]heptan-7-yl]methyl}-2'-(azetidin-1-yl)-3-fluoro-[1,1'-biphenyl]-4-carbonitrile] as the compound, how does the IC50 read?
A: 25 to 100 nM

Q: Which IC50 does the source give for N#Cc1ccc(-c2cccc(CN3C4CNCC3C4)c2C2CC2)cc1F [Example 274, 2'-cyclopropyl-3'-({3,6-diazabicyclo[3.1.1]heptan-6-yl}methyl)-3-fluoro-[1,1'-biphenyl]-4-carbonitrile] here?
A: 100 to 1000 nM

Q: How did the IC50 turn out when N#Cc1ccc(-c2cc(CN3CC4(CNCCO4)C3)ccc2N2CCCC2)cc1 [Example 343, 5'-({5-oxa-2,8-diazaspiro[3.5]nonan-2-yl}methyl)-2'-(pyrrolidin-1-yl)-[1,1'-biphenyl]-4-carbonitrile] was run?
A: > 1000 nM

Q: Which IC50 does the source give for Cn1nc2ccc(-c3ccc(CN4C[C@@]5(N)CC[C@@H]4C5)cc3-c3ccc(C#N)c(F)c3)cc2c1Cl [Example 233, 5'-{[(1R,4R)-4-amino-2-azabicyclo[2.2.1]heptan-2-yl]methyl}-2'-(3-chloro-2-methyl-2H-indazol-5-yl)-3-fluoro-[1,1'-biphenyl]-4-carbonitrile] here?
A: 10 to 25 nM

Q: Cc1cc(NC[C@@H]2CNCCO2)c(Cl)c(-c2ccc(C#N)c(F)c2)c1 (single isomer, unassigned) [Example 87] was tested. Which IC50 did it give?
A: > 1000 nM

Q: Which IC50 does the source give for N#Cc1ccc(-c2cccc(CN3CC4(CCCNC4)C3)c2-c2cnco2)cc1F [Example 333, 3'-({2,6-diazaspiro[3.5]nonan-2-yl}methyl)-3-fluoro-2'-(1,3-oxazol-5-yl)-[1,1'-biphenyl]-4-carbonitrile] here?
A: 10 to 25 nM

Q: How did the IC50 turn out when N#Cc1ccc(-c2cccc(Cn3ncc4c3CNCC4)c2-c2cncs2)cc1F [Example 280, 3-fluoro-3'-({1H,4H,5H,6H,7H-pyrazolo[3,4-c]pyridin-1-yl}methyl)-2'-(1,3-thiazol-5-yl)-[1,1'-biphenyl]-4-carbonitrile] was run?
A: 100 to 1000 nM

Q: How did the IC50 turn out when Cc1cc(CN2C[C@H]3C[C@@H]2CN3)c(C)c(-c2ccc(C#N)c(F)c2)c1 [Example 293, 3'-{[(1R,4R)-2,5-diazabicyclo[2.2.1]heptan-2-yl]methyl}-3-fluoro-2',5'-dimethyl-[1,1'-biphenyl]-4-carbonitrile] was run?
A: 100 to 1000 nM

Q: How did the IC50 turn out when N#Cc1ccc(-c2cccc(CN3C[C@]4(N)CC[C@H]3C4)c2-c2ccns2)cc1F [Example 171, 4-[3-[[(1S,4S)-4-amino-2-azabicyclo[2.2.1]heptan-2-yl]methyl]-2-isothiazol-5-yl-phenyl]-2-fluoro-benzonitrile hydrochloride] was run?
A: 10 to 25 nM

Q: How did the IC50 turn out when N#Cc1ccc(-c2cccc(C[C@@H]3CNCCO3)c2-c2ccno2)cc1F (single isomer, unassigned) [Example 13] was run?
A: 10 to 25 nM

Q: How did the IC50 turn out when N#Cc1ccc(-c2cc(CN3C[C@]4(N)CC[C@H]3C4)ccc2N2CCC3(CCCO3)CC2)cc1F [Example 217, 5'-{[(1S,4S)-4-amino-2-azabicyclo[2.2.1]heptan-2-yl]methyl}-3-fluoro-2'-{1-oxa-8-azaspiro[4.5]decan-8-yl}-[1,1'-biphenyl]-4-carbonitrile] was run?
A: 10 to 25 nM
